In US8652786B2, “Method for predicting responsiveness to drugs” (The General Hospital Corporation, priority 2005, dated 2014):
Entries after “also recorded” stand apart in the source; their conditions may differ.

Tests used:
[1] = system: MET; settings: Morotti et al. 2002; cited from earlier work
[2] = system: MET; settings: Morotti et al. 2002; cited from earlier work; remark: listed apart in the source
[3] = system: GTL-16 gastric carcinoma cells; settings: GTL-16 cells; cited from earlier work
[4] = system: gastric cancer cell line MKN45; assay: Drug-sensitivity screen of 40 cancer cell lines, MKN45; type: cell-based, human; settings: 3 days, DNA staining; MET-amplified line
Method: (§1) Cells were cultured and analyzed in triplicate within microtiter plates. Cell numbers were quantitated by DNA staining, 3 days after addition of various concentrations of drugs and expressed as a fraction of matched untreated cultures. For each drug concentration, cell lines with relative drug sensitivity (<50% of untreated control growth) are shown in darkest staining, intermediate sensitivity (50-75%) in […], and drug insensitivity (>75%) in intermediate shading.
(§2) Cellular Proliferation and Viability Assays. […] For quantitation of cellular proliferation, cells were fixed at appropriate time points in 4% paraformaldehyde, and all plates were stained simultaneously by using the fluorescent nucleic acid stain SYTO60 (Molecular Probes) at 1:8,000 dilution in PBS. Quantitation was done by measuring the […] at 700 nm by using the Odyssey Imaging System (LI-COR, Lincoln, Nebr.). The relative cell number was obtained by normalizing treated samples to matched untreated specimens. For quantitation of cell viability, cultures were stained after 4 days by using the MTT assay. Briefly, 10 μl of 5 mg/ml MTT (Thiazolyl blue) solution was added to each well and incubated for 2 h at 37° C. […] The results were quantitated spectrophotometrically by using a test wavelength of 570 nm and a reference wavelength of 630 nm.

[5] = system: Amp+ cells; assay: MTT viability, gastric cancer cell lines with MET amplification; type: cell-based, human; settings: 5 of 5 Amp+ cell lines, 96 h
[6] = system: Amp− cells; assay: MTT viability, gastric cancer cell lines without MET amplification; type: cell-based, human; settings: 12 of 12 Amp− cell lines, 96 h
[7] = system: Amp− cells; assay: Growth curve (SYTO60), Amp− cells; type: cell-based, human; settings: 1 μM, up to 6 days
[8] = system: MET; assay: Immunoblot of constitutive MET autophosphorylation in Amp+ cells; type: cell-based, human; settings: 50 nM, 3 h
[9] = system: ERK1/2, AKT, STAT3, and FAK; assay: Immunoblot of baseline phosphorylation of downstream effectors in Amp+ cells; type: cell-based, human; settings: 50 nM, 3 h
Method: (§3) FIG. 3: Constitutive activation of MET and activation of downstream signaling pathways in Amp^+ cells. (FIG. 3A) MET is constitutively activated in the Amp^+ cells. […] (FIG. 3B) Effect of HGF on MET activation in Amp^+ and Amp^− cells (representative immunoblots). Cells were serum-starved for 24 h and treated with 40 ng/ml HGF for 10 minutes. Phosphorylation of MET (Y1234/1235) is unaltered in Amp^+ cells treated with HGF, but it is induced by HGF in Amp^− cells (total MET control).
(§4) Cells are costained with DAPI to show nuclei.
(§5) Cells were either directly lysated in 2× sample buffer or in RIPA buffer (150 mM NaCl, 50 mM Tris pH 8.0, 1% NP40, 0.5% DOC, 0.1% SDS, 1 mM EDTA, 10 mM NaF, 1 mM Na-orthovanadate, 1× protease inhibitor cocktail (Roche; Indianapolis, Ind.)). Cell lysates were sonicated for 10 sec and cleared by centrifugation at 14,000 rpm for 10 min at 4° C. Cleared lysates were boiled in sample buffer and loaded onto 10% SDS-PAGE gel. For immunoblotting analysis, proteins were transferred onto Immobilon PVDF membrane (Millipore; Bedford, Mass.) and visualized with Western Lightning Plus chemiluminescence kit (Perkin Elmer; Boston, Mass.).

[10] = system: ERK1/2, AKT, STAT3, or FAK; assay: Immunoblot of baseline phosphorylation of downstream effectors in Amp− cells; type: cell-based, human; settings: 3 h
Method: as §3, §4, §5

[11] = system: Amp+ cells; assay: Apoptosis induction (cleaved caspase-3 staining, PARP cleavage), Amp+ cells; type: cell-based, human
Method: as §4
Cells were plated on coverslips in 12-well dishes and grown to approximately 75% confluency in 10% serum. […] After 72 h the cells were fixed with 4% paraformaldehyde for 20 minutes. Permeabilization with 1% NP40 for 5 minutes was followed by blocking with 3% BSA for 30 minutes. The coverslips were then incubated overnight at 4° C. with cleaved caspase-3 antibody at 1:200 dilution. The next day, the coverslips were washed 3 times with PBS and incubated with a secondary antibody (goat anti-rabbit FITC-conjugated) for 1 h at 1:250 dilution. Following 5 washes with PBS, coverslips were mounted in Vectashield mounting medium containing DAPI (Vector Laboratories; Burlingame, Calif.).
Apoptosis Induction Assay. […] After 72 h, cells were fixed with 4% paraformaldehyde for 20 min, permeabilized by using 1% Nonidet P-40 for 5 min, and blocked with 3% BSA for 30 min. The coverslips were then incubated overnight at 4° C. with cleaved caspase-3 antibody at 1:200 dilution. The next day, the coverslips were washed three times with PBS and incubated with a secondary antibody (goat anti-rabbit FITC-conjugated) for 1 h at 1:250 dilution. After five washes with PBS, coverslips were mounted in Vectashield mounting medium containing DAPI (Vector Laboratories), and staining was visualized by fluorescent microscopy.

[12] = system: NCI-H1650; assay: Drug-sensitivity screen of 40 cancer cell lines, NCI-H1650; type: cell-based, human; settings: gefitinib 100 nM to 10 μM, 3 days, DNA staining; del E746-A750 EGFR
Method: as §1, §2

[13] = system: NCI-H1975 NSCLC cell line; assay: Drug-sensitivity screen of 40 cancer cell lines, NCI-H1975; type: cell-based, human; settings: gefitinib; L858R and T790M EGFR
Method: as §1, §2

COC(=O)[C@@]1(O)C[C@H]2O[C@]1(C)n1c3ccccc3c3c4c(c5c6ccccc6n2c5c31)C(=O)NC4 [K252a]
inhibition of Met mediated signals [1]: inhibit Met mediated signals at nanomolar concentrations
Met autophosphorylation [2]: inhibits Met autophosphorylation
Met-driven proliferation [3]: reduces Met-driven proliferation

Cc1[nH]c(/C=C2\C(=O)Nc3ccc(S(=O)(=O)Cc4c(Cl)cccc4Cl)cc32)c(C)c1C(=O)N1CCC[C@@H]1CN1CCCC1 [PHA-665752, (3Z)-5-[(2,6-dichlorobenzyl)sulfonyl]-3-[(3,5-dimethyl-4-{[(2R)-2-(pyrrolidin-1-ylmethyl)pyrrolidin-1-yl]carbonyl}-1H-pyrrol-2-yl)methylene]-1,3-dihydro-2H-indol-2-one]
Extreme sensitivity (concentration) [4]: 100 nM
effect on number of viable cells [5]: dramatic decrease in the number of viable cells; also recorded: dramatic reduction in cell numbers
effect on number of viable cells [6]: resistant; also recorded: no effect
effect on proliferation rate [7]: unaffected
constitutive MET autophosphorylation [8]: effectively suppressed
baseline phosphorylation of downstream effectors ERK1/2, AKT, STAT3, FAK [9]: effectively abrogated
baseline phosphorylation of ERK1/2, AKT, STAT3, FAK [10]: no effect
induction of apoptosis ([11]; Amp+ cells, cleaved caspase-3 (1 μM, 72 h), PARP cleavage (500 nM, 72 h)): apoptosis
course of cell death ([11]; MKN45 cells): more delayed but prolonged cell death
PARP-cleavage signal ([11]; SNU-5 cells, 72 h): prominent PARP-cleavage signal

COc1cc2ncnc(Nc3ccc(F)c(Cl)c3)c2cc1OCCCN1CCOCC1 [gefitinib]
Extreme sensitivity (concentration) [12]: 100 nM
sensitivity in the assay [13]: relatively resistant
